Test system: HUVEC/MSC spheroids viability
Assay: Human HUVEC/MSC cell line growth inhibition [KRAS2];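 as to viability, T/C: percent of DMSO vehicle control luminescence so 100% = untreated viability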
Settings: for viability, T/C: stronger effect = lower value
How it was run: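 Stroma-only multicellular spheroids, formed from HUVEC and human MSCs at passages </=5, received RAS-pathway inhibitors with or without a second targeted drug. Dosing followed half-log dilutions from clinically achievable levels.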

[1] = curve of first compound, second compound 0.0316 µM
[2] = curve of first compound, second compound 0.1 µM
[3] = curve of first compound, second compound 0.316 µM
[4] = curve of first compound, second compound 1 µM
[5] = curve of first compound, second compound 3.16 µM
[6] = curve of first compound, second compound 10 µM
[7] = second compound 0.0316 µM, first compound 0.000316 µM
[8] = second compound 0.0316 µM, first compound 0.001 µM
[9] = second compound 0.0316 µM, first compound 0.00316 µM
[10] = second compound 0.0316 µM, first compound 0.01 µM
[11] = second compound 0.0316 µM, first compound 0.0316 µM
[12] = second compound 0.0316 µM, first compound 0.1 µM
[13] = second compound 0.1 µM, first compound 0.000316 µM
[14] = second compound 0.1 µM, first compound 0.001 µM
[15] = second compound 0.1 µM, first compound 0.00316 µM
[16] = second compound 0.1 µM, first compound 0.01 µM
[17] = second compound 0.1 µM, first compound 0.0316 µM
[18] = second compound 0.1 µM, first compound 0.1 µM
[19] = second compound 0.316 µM, first compound 0.000316 µM
[20] = second compound 0.316 µM, first compound 0.001 µM
[21] = second compound 0.316 µM, first compound 0.00316 µM
[22] = second compound 0.316 µM, first compound 0.01 µM
[23] = second compound 0.316 µM, first compound 0.0316 µM
[24] = second compound 0.316 µM, first compound 0.1 µM
[25] = second compound 1 µM, first compound 0.000316 µM
[26] = second compound 1 µM, first compound 0.001 µM
[27] = second compound 1 µM, first compound 0.00316 µM
[28] = second compound 1 µM, first compound 0.01 µM
[29] = second compound 1 µM, first compound 0.0316 µM
[30] = second compound 1 µM, first compound 0.1 µM
[31] = second compound 3.16 µM, first compound 0.000316 µM
[32] = second compound 3.16 µM, first compound 0.001 µM
[33] = second compound 3.16 µM, first compound 0.00316 µM
[34] = second compound 3.16 µM, first compound 0.01 µM
[35] = second compound 3.16 µM, first compound 0.0316 µM
[36] = second compound 3.16 µM, first compound 0.1 µM
[37] = second compound 10 µM, first compound 0.000316 µM
[38] = second compound 10 µM, first compound 0.001 µM
[39] = second compound 10 µM, first compound 0.00316 µM
[40] = second compound 10 µM, first compound 0.01 µM
[41] = second compound 10 µM, first compound 0.0316 µM
[42] = second compound 10 µM, first compound 0.1 µM

Compound CN(C)C/C=C/C(=O)Nc1cc2c(Nc3ccc(F)c(Cl)c3)ncnc2cc1O[C@H]1CCOC1 + COc1cc2nc(C)nc(NC(C)c3cc(N)cc(C(F)(F)F)c3)c2cc1OC1CCOC1 has an IC50 [1] of over 100 nM, an IC50 [2] of over 100 nM and an IC50 [3] of over 100 nM. For the same compound, the IC50 [4] was over 100 nM, the IC50 [5] was over 100 nM and the IC50 [6] was over 100 nM. It also gave a viability, T/C [7] of 98.6%, a viability, T/C [8] of 110% and a viability, T/C [9] of 104%. The viability, T/C [10] was 92.8%, the viability, T/C [11] was 86.8% and the viability, T/C [12] was 107%. The viability, T/C [13] was 96.3%, the viability, T/C [14] was 90.2% and the viability, T/C [15] was 96.8%. The viability, T/C [16] was 73.7%, the viability, T/C [17] was 90.5% and the viability, T/C [18] was 85.1%. For the same compound, the viability, T/C [19] was 132%, the viability, T/C [20] was 102% and the viability, T/C [21] was 86.9%. The viability, T/C [22] was 99.3%, the viability, T/C [23] was 74.8% and the viability, T/C [24] was 97.3%. For the same compound, the viability, T/C [25] was 112%, the viability, T/C [26] was 104% and the viability, T/C [27] was 97.6%. The viability, T/C [28] was 84%, the viability, T/C [29] was 91.6% and the viability, T/C [30] was 104%. It also gave a viability, T/C [31] of 91.6%, a viability, T/C [32] of 99.1% and a viability, T/C [33] of 76.3%. For the same compound, the viability, T/C [34] was 95.8%, the viability, T/C [35] was 75.3% and the viability, T/C [36] was 83.7%. For the same compound, the viability, T/C [37] was 60.7%, the viability, T/C [38] was 85.5% and the viability, T/C [39] was 80%. It also gave a viability, T/C [40] of 59.6%, a viability, T/C [41] of 74.4% and a viability, T/C [42] of 74.4%.
With CN(C)C/C=C/C(=O)Nc1cc2c(Nc3ccc(F)c(Cl)c3)ncnc2cc1O[C@H]1CCOC1 + CNCc1ccccc1-c1csc(C(C)Nc2nc(C)nc3cc(OC)c(OC)cc23)c1 the IC50 [1] was over 100 nM, the IC50 [2] was over 100 nM and the IC50 [3] was over 100 nM. For the same compound, the IC50 [4] was over 100 nM, the IC50 [5] was over 100 nM and the IC50 [6] was under 0.316 nM. For the same compound, the viability, T/C [7] was 100%, the viability, T/C [8] was 89.5% and the viability, T/C [9] was 90.5%. For the same compound, the viability, T/C [10] was 91.2%, the viability, T/C [11] was 74% and the viability, T/C [12] was 86%. It also gave a viability, T/C [13] of 89.7%, a viability, T/C [14] of 105% and a viability, T/C [15] of 77.4%. It also gave a viability, T/C [16] of 76.7%, a viability, T/C [17] of 89.5% and a viability, T/C [18] of 74.8%. It also gave a viability, T/C [19] of 85.2%, a viability, T/C [20] of 93.2% and a viability, T/C [21] of 72.5%. The viability, T/C [22] was 78.1%, the viability, T/C [23] was 96.6% and the viability, T/C [24] was 68.8%. It also gave a viability, T/C [25] of 78.3%, a viability, T/C [26] of 73.7% and a viability, T/C [27] of 86.5%. The viability, T/C [28] was 73.5%, the viability, T/C [29] was 72.7% and the viability, T/C [30] was 59.8%. The viability, T/C [31] was 89.2%, the viability, T/C [32] was 94.4% and the viability, T/C [33] was 80.4%. It also gave a viability, T/C [34] of 89.5%, a viability, T/C [35] of 65.2% and a viability, T/C [36] of 84.4%. It also gave a viability, T/C [37] of 0.33%, a viability, T/C [38] of 0.35% and a viability, T/C [39] of 0.37%. The viability, T/C [40] was 0.33%, the viability, T/C [41] was 0.37% and the viability, T/C [42] was 0.65%.
In the case of CC(=O)OC12COC1CC(O)C1(C)C(=O)C(O)C3=C(C)C(OC(=O)C(O)C(NC(=O)OC(C)(C)C)c4ccccc4)CC(O)(C(OC(=O)c4ccccc4)C21)C3(C)C (stereo unspecified), the viability, T/C (compound 0.00949 µM) is reported as 45.1% [middle of 5 runs], the viability, T/C (compound 0.03 µM) is reported as 44.2% [middle of 5 runs] and the viability, T/C (compound 0.0949 µM) is reported as 47.2% [middle of 5 runs]. The viability, T/C (compound 0.3 µM) was 47.1% [middle of 4 runs], the viability, T/C (compound 0.949 µM) was 47.9% [middle of 5 runs] and the viability, T/C (compound 3 µM) was 58.1% [middle of 5 runs]. The IC50 (curve of compound) was under 9.49 nM.

— PubChem BioAssay AID2060912 (Molecular Pharmacology Branch, DTP, NCI, 2025)
